From patent US8865734B2 (priority 2010, dated 2014)

Tests used:
[1] = test system: in vitro grown Mycobacteria (M. tuberculosis); assay: QUM: Quantification of in vitro grown Mycobacteria (in vitro growth fluorescence assay); type: cell-based; conditions: Mycobacterium tuberculosis; MIC, 80% bacterial growth inhibition; in vitro growth; read-out: QUM
Summary of the method: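 Mycobacterium tuberculosis grown in vitro was quantified by fluorescence across compound dose responses. MIC is defined as the minimum concentration producing 80% growth inhibition.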

[2] = test system: M. tuberculosis inside the host macrophage; assay: QIM: Quantification of Intracellular Mycobacteria (intracellular growth assay, phenotypic cell-based); conditions: Mycobacterium tuberculosis; MIC, 80% bacterial growth inhibition; intracellular growth; read-out: QIM
Summary of the method: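 Dose-response testing of intracellular mycobacterial replication in infected macrophages, a cell-based screening format; MIC is defined as the lowest concentration achieving 80% inhibition of bacterial growth.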

SMILES	MIC [1]	MIC [2]	melting point
CCc1nc2ccc(Cl)cn2c1CNc1ccc(Oc2ccc(F)cc2)cc1 [Compound 242, N-((6-Chloro-2-ethylimidazo[1,2-a]pyridin-3-yl)methyl)-4-(4-fluorophenoxy)aniline]	> 20 µM	> 20 µM	148.6 to 148.8 °C
CCc1nc2ccc(Cl)cn2c1-c1nc(Cc2ccc(OC(F)(F)F)cc2)no1 [Compound 243, 5-(6-Chloro-2-ethylimidazo[1,2-a]pyridin-3-yl)-3-(4-(trifluoromethoxy)benzyl)-1,2,4-oxadiazole]	> 20 µM	> 20 µM	146.4 to 146.9 °C
CCc1nc2ccccn2c1C(=O)NCc1ccc(/N=C/c2ccc(OC(F)(F)F)cc2)cc1 [Compound 261]	> 20 µM	> 20 µM	194 °C
CCc1nc2cc(Cl)ccn2c1C(=O)NCc1ccc(NCc2ccc(OC(F)(F)F)cc2)cc1 [Compound 262]	< 1 µM	< 1 µM	169.6 °C
CCc1nc2ccc(Cl)cn2c1C(=O)NCc1ccc(N2CCC3CCCCC3C2)cc1 (stereo not drawn) [Compound 267, 6-Chloro-2-ethyl-N-(4-(octahydroisoquinolin-2(1H)-yl)benzyl)imidazo[1,2-a]pyridine-3-carboxamide]	< 1 µM	< 1 µM	141.7 °C
CCc1nc2cc(Cl)ccn2c1C(=O)NCc1ccc(N2C=CC(=O)CC2)cc1 [Compound 270, 7-Chloro-2-ethyl-N-(4-(4-oxo-3,4-dihydropyridin-1(2H)-yl)benzyl)imidazo[1,2-a]pyridine-3-carboxamide]	> 20 µM	> 20 µM	201.3 to 202.8 °C
CCc1nc2cc(Cl)ccn2c1C(=O)NCc1ccc(N2CCCCC2C)cc1 (stereo not drawn) [Compound 273, 7-chloro-2-ethyl-N-(4-(2-methylpiperidin-1-yl)benzyl)imidazo[1,2-a]pyridine-3-carboxamide]	< 1 µM	< 1 µM	117.9 °C
CCc1nc2ccc(Cl)cn2c1C(=O)NCc1ccc(N2CCC(COC)CC2)cc1 [Compound 281, 6-Chloro-2-ethyl-N-(4-(4-(methoxymethyl)piperidin-1-yl)benzyl)imidazo[1,2-a]pyridine-3-carboxamide]	< 1 µM	< 1 µM	162.1 °C
CCc1nc2cc(Cl)ccn2c1C(=O)NCc1ccc(N2CCC(COC)CC2)cc1 [Compound 282, 7-Chloro-2-ethyl-N-(4-(4-(methoxymethyl)piperidin-1-yl)benzyl)imidazo[1,2-a]pyridine-3-carboxamide]	< 1 µM	< 1 µM	172.5 °C
CCc1nc2ccc(Cl)cn2c1C(=O)NCc1ccc(N2CCC(c3ccc(F)cc3)CC2)cc1 [Compound 286, 6-Chloro-2-ethyl-N-(4-(4-(4-fluorophenyl)piperidin-1-yl)benzyl)imidazo[1,2-a]pyridine-3-carboxamide]	< 1 µM	< 1 µM	164 °C
CCc1nc2cc(Cl)ccn2c1C(=O)NCc1ccc(N2CCC(c3ccc(F)cc3)CC2)cc1 [Compound 287, 7-Chloro-2-ethyl-N-(4-(4-(4-fluorophenyl)piperidin-1-yl)benzyl)imidazo[1,2-a]pyridine-3-carboxamide]	< 1 µM	< 1 µM	182.7 °C
CCc1nc2ccccn2c1C(=O)NCc1ccc(N2CCC(COc3ccc(F)cc3)CC2)cc1 [Compound 295, 2-Ethyl-N-(4-(4-((4-fluorophenoxy)methyl)piperidin-1-yl)benzyl)imidazo[1,2-a]pyridine-3-carboxamide]	< 1 µM	< 1 µM	144.2 °C
CCc1nc2ccc(Cl)cn2c1C(=O)NCc1ccc(N2CCC(COc3ccc(F)cc3)CC2)cc1 [Compound 296, 6-Chloro-2-ethyl-N-(4-(4-((4-fluorophenoxy)methyl)piperidin-1-yl)benzyl)imidazo[1,2-a]pyridine-3-carboxamide]	< 1 µM	< 1 µM	171 °C
CCc1nc2cc(Cl)ccn2c1C(=O)NCc1ccc(N2CCC(COc3ccc(F)cc3)CC2)cc1 [Compound 297, 7-Chloro-2-ethyl-N-(4-(4-((4-fluorophenoxy)methyl)piperidin-1-yl)benzyl)imidazo[1,2-a]pyridine-3-carboxamide]	< 1 µM	< 1 µM	186.5 °C
CCc1nc2ccccn2c1C(=O)NCc1ccc(N2CCN(c3ccc(F)cc3)CC2)cc1 [Compound 303, 2-Ethyl-N-(4-(4-(4-fluorophenyl)piperazin-1-yl)benzyl)imidazo[1,2-a]pyridine-3-carboxamide]	< 1 µM	< 1 µM	189.2 °C
CCc1nc2ccc(F)cn2c1C(=O)NCc1ccc(N2CCN(c3ccc(F)cc3)CC2)cc1 [Compound 306, 2-Ethyl-6-fluoro-N-(4-(4-(4-fluorophenyl)piperazin-1-yl)benzyl)imidazo[1,2-a]pyridine-3-carboxamide]	< 1 µM	< 1 µM	200.9 °C
CCc1nc2ccc(Br)cn2c1C(=O)NCc1ccc(N2CCN(c3ccc(F)cc3)CC2)cc1 [Compound 307, 6-Bromo-2-ethyl-N-(4-(4-(4-fluorophenyl)piperazin-1-yl)benzyl)imidazo[1,2-a]pyridine-3-carboxamide]	< 1 µM	< 1 µM	218.1 °C
CCc1nc2cc(C)ccn2c1C(=O)NCc1ccc(N2CCN(c3ccc(F)cc3)CC2)cc1 [Compound 309, 2-Ethyl-N-(4-(4-(4-fluorophenyl)piperazin-1-yl)benzyl)-7-methylimidazo[1,2-a]pyridine-3-carboxamide]	< 1 µM	< 1 µM	203.7 °C
CCc1nc2c(F)cccn2c1C(=O)NCc1ccc(N2CCN(c3ccc(F)cc3)CC2)cc1 [Compound 310, 2-Ethyl-8-fluoro-N-(4-(4-(4-fluorophenyl)piperazin-1-yl)benzyl)imidazo[1,2-a]pyridine-3-carboxamide]	< 1 µM	< 1 µM	204.1 °C
CCc1nc2cc(Br)ccn2c1C(=O)NCc1ccc(N2CCN(c3ccc(F)cc3)CC2)cc1 [Compound 311, 7-Bromo-2-ethyl-N-(4-(4-(4-fluorophenyl)piperazin-1-yl)benzyl)imidazo[1,2-a]pyridine-3-carboxamide]	< 1 µM	< 1 µM	214.6 °C
CCc1nc2ccc(Br)cn2c1C(=O)NCc1ccc(N2CCOCC2)cc1 [Compound 315, 6-Bromo-2-ethyl-N-(4-morpholinobenzyl)imidazo[1,2-a]pyridine-3-carboxamide]	< 1 µM	< 1 µM	228.2 °C
CCc1nc2c(F)cccn2c1C(=O)NCc1ccc(N2CCOCC2)cc1 [Compound 317, 2-Ethyl-8-fluoro-N-(4-morpholinobenzyl)imidazo[1,2-a]pyridine-3-carboxamide]	< 1 µM	< 1 µM	197.3 °C
CCc1nc2cc(Br)ccn2c1C(=O)NCc1ccc(N2CCOCC2)cc1 [Compound 324, 7-Bromo-2-ethyl-N-(4-morpholinobenzyl)imidazo[1,2-a]pyridine-3-carboxamide]	< 1 µM	< 1 µM	202.6 °C
CCc1nc2cc(-c3ccncc3)ccn2c1C(=O)NCc1ccc(N2CCOCC2)cc1 [Compound 325, 2-Ethyl-N-(4-morpholinobenzyl)-7-(pyridin-4-yl)imidazo[1,2-a]pyridine-3-carboxamide]	> 20 µM	> 20 µM	210.1 °C
CCc1nc2cc(-c3cccnc3)ccn2c1C(=O)NCc1ccc(N2CCOCC2)cc1 [Compound 326, 2-Ethyl-N-(4-morpholinobenzyl)-7-(pyridin-3-yl)imidazo[1,2-a]pyridine-3-carboxamide]	> 20 µM	> 20 µM	208.5 °C
CCc1nc2cc(N3CCN(C)CC3)ccn2c1C(=O)NCc1ccc(N2CCOCC2)cc1 [Compound 328, 2-Ethyl-7-(4-methylpiperazin-1-yl)-N-(4-morpholinobenzyl)imidazo[1,2-a]pyridine-3-carboxamide]	> 20 µM	> 20 µM	204.8 °C
CCc1nc2cc(N3CCN(c4ccccc4)CC3)ccn2c1C(=O)NCc1ccc(C(F)(F)F)cc1 [Compound 330, 2-Ethyl-7-(4-phenylpiperazin-1-yl)-N-(4-(trifluoromethyl)benzyl)imidazo[1,2-a]pyridine-3-carboxamide]	> 20 µM	< 1 µM	235.2 °C
CCc1nc2cc(N3CCN(Cc4ccc(F)cc4)CC3)ccn2c1C(=O)NCc1ccc(N2CCOCC2)cc1 [Compound 331, 2-Ethyl-7-(4-(4-fluorobenzyl)piperazin-1-yl)-N-(4-morpholinobenzyl)imidazo[1,2-a]pyridine-3-carboxamide]	> 20 µM	> 20 µM	212.5 °C
